Results on 15 compounds are retold here after patent US20190119282A1, “IMIDAZOPYRIDAZINES USEFUL AS INHIBITORS OF THE PAR-2 SIGNALING PATHWAY” (Vertex Pharmaceuticals Incorporated, priority 2013, published 2019).

The subject of experiment [1] is Thrombin-stimulated Ca2+ response in HT-29 cells. Briefly: Ca FLIPR TETRA assay, ANTAGONIST mode, stimulation with 1 U/mL Thrombin. It is filed as cell-based, human. The note with it: for IC50: Homo sapiens, HT-29 cells, stimulation with 1 U/mL Thrombin. As for the experimental part:
(§1) Example 60: Protocol for Testing PAR2 Compounds in ANTAGONIST Mode Using the Ca FLIPR^TETRA Assay (384 Well)
(§2) 23000 HT-29 cells (ATCC# HTB-38) were plated in 384-well black, transparent-flat bottom plates and incubated in 25 uL of 1% FBS/McCoy's media ON at 37° C. under an atmosphere of 5% CO2. The following day, 25 uL FLIPR calcium 5 Molecular Devices assay reagent (Cat: R-8186) was added. Plates were incubated at 37° C. and r. t. for 45 min and 15 min, respectively. Compounds dilutions were prepared in 100% DMSO using a Biomek FX and diluted 20-fold in HBSS and then 5.5 uL was added directly to the cells by the FLIPR^TETRA (10× dilution) using FLIPR Tetra Pipette tips, black, non-sterile, 384 Molecular Devices (Cat: 9000-0764).
(§3) A first read was performed to determine whether the test compounds on their own can activate Ca2+ responses.
(§4) The cells were incubated with the compounds for 30 min at r. t. and then read in ANTAGONIST mode in the same plate by stimulating with 6.2 uL of a fixed concentration of the activator: final concentrations: 8 μM SLIGKV, 1 U/mL Thrombin, 3.1 U/mL trypsin, or 0.6 μM UTP.

For experiment [2], the system named is UTP-stimulated Ca2+ response in HT-29 cells. Nature of the experiment: Ca FLIPR TETRA assay, ANTAGONIST mode, stimulation with 0.6 μM UTP. The class given is cell-based, human. The note with it: Homo sapiens; HT-29 cells, stimulation with 0.6 μM UTP. As for the experimental part: as §1, §2, §3, §4
For experiment [3], the target named is T1, PAR2 (HT-29 cells, SLIGKV activation) (Homo sapiens, UniProt P55085).
T1 construct: host or cells: HT-29 cells
T1 sequence (P55085 26-397): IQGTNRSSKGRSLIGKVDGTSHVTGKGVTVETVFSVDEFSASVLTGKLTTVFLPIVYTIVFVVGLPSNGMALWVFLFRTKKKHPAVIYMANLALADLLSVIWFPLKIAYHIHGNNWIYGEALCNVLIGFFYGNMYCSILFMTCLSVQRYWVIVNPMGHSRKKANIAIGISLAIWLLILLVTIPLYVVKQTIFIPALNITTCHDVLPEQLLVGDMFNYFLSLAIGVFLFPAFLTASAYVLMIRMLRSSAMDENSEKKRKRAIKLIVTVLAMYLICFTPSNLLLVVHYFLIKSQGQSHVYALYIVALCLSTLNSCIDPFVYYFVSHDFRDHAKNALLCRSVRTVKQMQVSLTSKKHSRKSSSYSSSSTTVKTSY
Briefly: Ca FLIPR TETRA assay, ANTAGONIST mode, stimulation with 8 μM SLIGKV. It is filed as cell-based. The note with it: HT-29 cells, stimulation with 8 μM SLIGKV. As for the experimental part:
as §1, §2, §3, §4

The target of experiment [4] is T2, PAR2 (HT-29 cells, trypsin activation) (Homo sapiens, UniProt P55085).
T2 construct: host or cells: HT-29 cells
T2 sequence (P55085 26-397): T1 sequence (P55085 26-397)
Nature of the experiment: Ca FLIPR TETRA assay, ANTAGONIST mode, stimulation with 3.1 U/mL trypsin. It is filed as cell-based. The note with it: HT-29 cells, stimulation with 3.1 U/mL trypsin. As for the experimental part: as §1, §2, §3, §4

The term IC50 denotes the point on the concentration scale where inhibition reaches its midpoint.

Where only a bound is given, the exact number is not on record here.

`C=CC(=O)N1CCN(C(=O)c2cn3nc(-c4ccc(F)cc4)cc(C(C)C)c3n2)C[C@@H]1C` [Compound I-17, 1-[(2S)-4-[6-(4-Fluorophenyl)-8-isopropyl-imidazo[1,2-b]pyridazine-2-carbonyl]-2-methyl-piperazin-1-yl]prop-2-en-1-one]: the IC50 in experiment [1] amounted to 20 µM; in experiment [2] it was 19 µM; in experiment [3], 0.041 µM; in experiment [4] it was 0.78 µM.

As for `CC(C)c1cc(Cl)nn2cc(C(=O)N3CCN(C(=O)OC(C)(C)C)CC3(C)C)nc12` [Compound I-18, tert-Butyl 4-(6-chloro-8-isopropyl-imidazo[1,2-b]pyridazine-2-carbonyl)-3,3-dimethyl-piperazine-1-carboxylate], the IC50 turned out to be 20 µM in experiment [1], 18 µM in experiment [2], 2.8 µM in experiment [3] and 6.8 µM in experiment [4].

In the case of `CC(C)c1cc(-c2ccc(F)cc2)nn2cc(C(=O)N3CCN(C(=O)C4(O)CCC4)CC3(C)C)nc12` [Compound I-19, [6-(4-Fluorophenyl)-8-isopropyl-imidazo[1,2-b]pyridazin-2-yl]-[4-(1-hydroxycyclobutanecarbonyl)-2,2-dimethyl-piperazin-1-yl]methanone], the “Thrombin % @ concentration” value in experiment [1] (@ 50 (μM)) was found to be 62% @ 50. Also, the results for the IC50 in experiment [2], in experiment [3] and in experiment [4] were 50 µM, 0.025 µM and 0.056 µM, respectively.

With `CC(C)(O)C(=O)N1CCN(C(=O)c2cn3nc(-c4ccc(F)cc4)cc(C4CC4)c3n2)C(C)(C)C1` [Compound I-20, 1-[4-[8-cyclopropyl-6-(4-fluorophenyl)imidazo[1,2-b]pyridazine-2-carbonyl]-3,3-dimethyl-piperazin-1-yl]-2-hydroxy-2-methyl-propan-1-one], the IC50 in experiment [1] is 3.6 µM; in experiment [2], 3 µM; in experiment [3] it was 0.28 µM; in experiment [4], 1.02 µM.

Turning to `CC1(C)CN(C(=O)C2(O)CCC2)CCN1C(=O)c1cn2nc(-c3ccc(F)cc3)cc(C3CC3)c2n1` [Compound I-21, [8-cyclopropyl-6-(4-fluorophenyl)imidazo[1,2-b]pyridazin-2-yl]-[4-(1-hydroxycyclobutanecarbonyl)-2,2-dimethyl-piperazin-1-yl]methanone], the IC50 in experiment [1] is above 50 µM; in experiment [2] it was 64 µM; in experiment [3], 0.019 µM; in experiment [4], 0.029 µM.

With `CC(C)C(O)C(=O)N1CCN(C(=O)c2cn3nc(-c4ccc(F)cc4)cc(C4CC4)c3n2)C(C)(C)C1` (stereo not drawn) [Compound I-22, 1-[4-[8-cyclopropyl-6-(4-fluorophenyl)imidazo[1,2-b]pyridazine-2-carbonyl]-3,3-dimethyl-piperazin-1-yl]-2-hydroxy-3-methyl-butan-1-one], the IC50 in experiment [1] turned out to be 21 µM; in experiment [2] it was 25 µM; in experiment [3], 0.007 µM; in experiment [4] it was 0.014 µM.

For `CC(C)c1cc(-c2ccc(F)cc2)nn2cc(C(=O)N3CCN(C(=O)OC(C)(C)C)CC34COC4)nc12` [Compound I-23, tert-butyl 5-[6-(4-fluorophenyl)-8-isopropyl-imidazo[1,2-b]pyridazine-2-carbonyl]-2-oxa-5,8-diazaspiro[3.5]nonane-8-carboxylate], the IC50 was above 50 µM in experiment [1], above 50 µM in experiment [2], 0.13 µM in experiment [3] and 0.3 µM in experiment [4].

Regarding `CC(C)c1cc(-c2ccc(F)cc2)nn2cc(C(=O)N3CCC4(CC3)CNC(=O)O4)nc12` [Compound I-24, 8-[6-(4-fluorophenyl)-8-isopropyl-imidazo[1,2-b]pyridazine-2-carbonyl]-1-oxa-3,8-diazaspiro[4.5]decan-2-one], the concentration for half-maximal inhibition (IC50) in experiment [1] is above 50 µM; in experiment [2], above 50 µM; in experiment [3], 0.22 µM; in experiment [4], 0.59 µM.

Take `CC(C)c1cc(-c2ccc(F)cc2)nn2cc(C(=O)N3CCNC(=O)C3(C)C)nc12` [Compound I-25, 4-[6-(4-fluorophenyl)-8-isopropyl-imidazo[1,2-b]pyridazine-2-carbonyl]-3,3-dimethyl-piperazin-2-one]: the IC50 in experiment [1] was above 50 µM; in experiment [2] it was above 50 µM; in experiment [3] it was 0.009 µM; in experiment [4] it was 0.021 µM.

For `CC(C)c1cc(-c2ccc(F)cc2)nn2cc(C(=O)N3CCN(C(=O)C4(O)CCOCC4)CC34COC4)nc12` [Compound I-26, [6-(4-fluorophenyl)-8-isopropyl-imidazo[1,2-b]pyridazin-2-yl]-[8-(4-hydroxytetrahydropyran-4-carbonyl)-2-oxa-5,8-diazaspiro[3.5]nonan-5-yl]methanone], the IC50 amounted to 28 µM in experiment [1], 31 µM in experiment [2], 4.4 µM in experiment [3] and 9.1 µM in experiment [4].

Turning to `CC(C)c1cc(-c2ccc(F)cc2)nn2cc(C(=O)N3CCN(C(=O)C4(O)CCC4)C[C@@H]3C)nc12` [Compound I-28, [6-(4-fluorophenyl)-8-isopropyl-imidazo[1,2-b]pyridazin-2-yl]-[(2S)-4-(1-hydroxycyclobutanecarbonyl)-2-methyl-piperazin-1-yl]methanone], the IC50 in experiment [1] was 33 µM; in experiment [2], 38 µM; in experiment [3] it was 8.8 µM; in experiment [4] it was 15 µM.

Regarding `CC1(c2cc(-c3ccc(F)cc3)nn3cc(C(=O)N4CCNC(=O)C4(C)C)nc23)CC1` [Compound I-30, 4-[6-(4-fluorophenyl)-8-(1-methylcyclopropyl)imidazo[1,2-b]pyridazine-2-carbonyl]-3,3-dimethyl-piperazin-2-one], the IC50 in experiment [1] was found to be 25 µM; in experiment [2], 26 µM; in experiment [3], 0.002 µM; in experiment [4] it was 0.003 µM.

For `CC1(c2cc(-c3ccc(F)cc3)nn3cc(C(=O)N4CCN(C(=O)C5(O)CCOCC5)CC4(C)C)nc23)CC1` [Compound I-31, [6-(4-fluorophenyl)-8-(1-methylcyclopropyl)imidazo[1,2-b]pyridazin-2-yl]-[4-(4-hydroxytetrahydropyran-4-carbonyl)-2,2-dimethyl-piperazin-1-yl]methanone], the IC50 in experiment [1] came to 19 µM; in experiment [2], 24 µM; in experiment [3] it was 0.031 µM; in experiment [4], 0.042 µM.

Take `CC1(c2cc(-c3ccc(F)cc3)nn3cc(C(=O)N4CCN(C(=O)C5(O)CCC5)CC4(C)C)nc23)CC1` [Compound I-33, [6-(4-fluorophenyl)-8-(1-methylcyclopropyl)imidazo[1,2-b]pyridazin-2-yl]-[4-(1-hydroxycyclobutanecarbonyl)-2,2-dimethyl-piperazin-1-yl]methanone]: the IC50 was above 50 µM in experiment [1], above 50 µM in experiment [2], 0.045 µM in experiment [3] and 0.014 µM in experiment [4].

On to `C[C@H](O)C(=O)N1CCN(C(=O)c2cn3nc(-c4ccc(F)cc4)cc(C4(C)CC4)c3n2)C(C)(C)C1` [Compound I-34, (2S)-1-[4-[6-(4-fluorophenyl)-8-(1-methylcyclopropyl)imidazo[1,2-b]pyridazine-2-carbonyl]-3,3-dimethyl-piperazin-1-yl]-2-hydroxy-propan-1-one], for which the IC50 amounted to 21 µM in experiment [1], 21 µM in experiment [2], 0.054 µM in experiment [3] and 0.059 µM in experiment [4].
